Experimental data published in PubChem BioAssay (NCI).
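Where inhibition never reached the appropriate level, the endpoint shown equals the highest concentration tested. Otherwise, values were interpolated linearly from a five-concentration, 48-hour dose response in 96-well plates. The concentration for full growth arrest is given as TGI.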

Legend:
Assay in all cases: NCI-60 cell line screen, 48 h
HOP-92 NSCLC = tested on: HOP-92 NSCLC
OVCAR-3 ovarian = tested on: OVCAR-3 ovarian
SF-268 CNS = tested on: SF-268 CNS
786-0 renal = tested on: 786-0 renal
MDA-MB-231 breast = tested on: MDA-MB-231 breast
IGROV1 ovarian = tested on: IGROV1 ovarian
SF-539 CNS = tested on: SF-539 CNS
NCI-H460 lung = tested on: NCI-H460 lung
CAKI-1 renal = tested on: CAKI-1 renal
HCC-2998 colon = tested on: HCC-2998 colon

Row | SMILES | TGI (HOP-92 NSCLC) [µM] | TGI (OVCAR-3 ovarian) [µM] | TGI (SF-268 CNS) [µM] | TGI (786-0 renal) [µM] | TGI (MDA-MB-231 breast) [µM] | TGI (IGROV1 ovarian) [µM] | TGI (SF-539 CNS) [µM] | TGI (NCI-H460 lung) [µM] | TGI (CAKI-1 renal) [µM] | TGI (HCC-2998 colon) [µM]
1 | CN(C)CCNC(=O)c1cccc2c(NC(CCCN=C(N)N)C(=O)O)c3ccccc3nc12 (configuration not stated) | 51.1 | > 100 | 27.7 | > 100 | > 100 | 64.7 |  |  |  | 
2 | CC(C)C(C=O)C(O)(C(F)(F)F)C(F)(F)F (configuration not stated) | > 100 | > 100 |  | > 100 | > 100 |  | > 100 | > 100 | > 100 | > 100
3 | O=C(NC1CCCCC1)N1CCNC1=S | > 100 | > 100 | > 100 | > 100 | 8.05 | > 100 | > 100 | > 100 | > 100 | > 100
4 | OC[C@@H](O)[C@H](O)[C@H](O)[C@@H](O)C1SCCCS1 | 92.5 | > 100 | > 100 | > 100 | > 100 | > 100 | > 100 | > 100 | > 100 | > 100
5 | CN1CN(c2ccccc2)C2(CCN(C(=O)OC(C)(C)C)CC2)C1=O | > 100 | > 100 | > 100 | > 100 | > 100 | > 100 | > 100 | > 100 | > 100 | > 100
6 | COc1ccc2cc(CNCCOCCOCCNCc3ccc4cc(OC)ccc4c3)ccc2c1 | 3.05 | 3.54 | 2.99 | 2.19 | 2.91 | 3.45 | 3.03 | 1.51 | 3.22 | 0.319
7 | COc1ccc2nc3c(nc2c1)C(C)(C)C=C3c1ccc(Br)cc1 | > 100 |  | > 100 | > 100 | > 100 | > 100 | > 100 | > 100 | > 100 | > 100
8 | Nc1nc(Cl)cc(Oc2ccc(Cl)cc2)n1 | > 100 | > 100 | > 100 | > 100 | > 100 | > 100 | > 100 | > 100 | > 100 | > 100
9 | C=c1c2ccccc2oc2nc3[nH]c(N)c(C#N)c(N)c3c(=N)c12 | > 100 | 43.3 | 70.9 | > 100 | > 100 | 42.5 | 71.5 | > 100 | > 100 | 66.7
10 | O=C(O)C(=Cc1ccc(-c2ccc([N+](=O)[O-])cc2)o1)C(=O)O |  | > 100 | > 100 | > 100 | > 100 | > 100 | > 100 | > 100 | > 100 | > 100
11 | Cn1cnc([N+](=O)[O-])c1Sc1nnc(-c2ccc(Cl)cc2)n1C | 25.8 | 26.9 | 54.7 |  |  | 32.7 | 37.4 | 55.7 | 29.7 | 32.3
12 | Cn1c(SCc2ccc([N+](=O)[O-])cc2)nnc1C12CC3CC(CC(C3)C1)C2 | > 10 | > 10 | > 10 | > 10 | > 10 | > 10 | > 10 | > 10 | > 10 | > 10
13 | COc1c(C(=O)CC2c3c(cc4oc(C)cc(=O)c4c3OC)OC(=N)C2c2nc3ccccc3[nH]2)c(O)c(OC)c2occc12 (configuration not stated) | > 100 | > 100 | > 100 | > 100 | > 100 | > 100 |  | > 100 | > 100 | > 100
14 | CC(=O)Nc1ccc(S(=O)(=O)Nc2cnc3ccccc3n2)cc1 | > 100 | > 100 | > 100 | > 100 |  | > 100 | > 100 | > 100 | > 100 | > 100
15 | CC(C)(C)c1ccc(OCCOc2ccc(C(C)(C)C)cc2NC=O)c(NC=O)c1 | 23.5 | 36.5 | 65.8 | 37.8 | 40.5 | > 100 | 21.6 | 34.3 | > 67.7 | 23.5
16 | Nc1ccc(Oc2ccc(C34CC5CC(C3)CC(c3ccc(Oc6ccc(N)c(O)c6)cc3)(C5)C4)cc2)cc1O | 4.48 | 5.05 | 2.9 | > 46 | 3 | 3.04 | 4.57 | 3.37 | 3.57 | 
17 | CN(C)CC(O)CNC(=O)Nc1ccccc1 (configuration not stated) | > 100 | > 100 | > 100 | > 100 | > 100 | > 100 | > 100 | > 100 | > 100 | > 100
18 | CC(=O)O[C@H]1C(=O)[C@@]2(C)C(C(OC(=O)c3ccccc3)[C@]3(O)CC(OC(=O)C(O)C(NC(=O)c4cccc(Cl)c4)c4ccccc4)C(C)=C1C3(C)C)[C@]1(OC(C)=O)CO[C@@H]1C[C@@H]2O (some centres not stated) | > 10 | > 10 | > 10 | > 10 | 8.72 | > 10 | 2.19 | > 10 | > 10 | 4.1
19 | COC(=O)C1=C(C(=O)OC)SC2(S1)C(C(=O)OC)=C(C(=O)OC)Sc1c2ssc1=O | 2.3 | 2.38 | 10.3 | 1.21 | 3.55 | 3.63 | 3.35 | 8.76 | 2.93 | 2.72
20 | CC(=O)OC1CC[C@@]2(C)C(=CC[C@@H]3[C@@H]2CC[C@]2(C)Nc4c(cnn4-c4ccc(F)cc4)C[C@@H]32)C1 (some centres not stated) | > 100 | > 100 | > 100 | > 59.2 | > 100 | > 100 | 17.2 | > 100 | 42.8 | > 100
21 | Cc1ccc2c(=O)cc(-c3ccccc3)[nH]c2n1 | > 55.2 | 0.308 | > 100 | > 86 | 22.8 | > 100 | 2.79 | > 100 | > 72.9 | 4.68
